From patent US20200138081A1, “Biologically active food additive for preventing and treating acute respiratory diseases and flu” (Parapharm LLC, priority 2013, published 2020) come the findings set out here.

Holding throughout (assay type): in vivo, human
Test [1] concerns IgG. Kind of test: Example 6 ADBH, 25(OH)D and combination, IgG (immunoturbidimetric). The source says:
(§1) The object was to study the effect of active metabolites of vitamin D, as exemplified by 25 (OH)D, on the immune status in participants, judging by the level of immunoglobulines IgG, IgA, and IgM. 32 participants in the age range between 38 and 62 (23 females and 9 males) residing in Penza had no acute diseases and were apparently healthy. The immune status was examined before the therapy started and 30 days after that. […] Immunoglobulines were detected by an immunoturbidimetric method, using an assay kit of DiaSys Diagnostic Systems (Germany).
(§2) Table 3 presents mean values (M±m) of specific antibody response for main immunoglobulin classes IgG, IgA, and IgM.

Test [2] concerns IgM. Nature of the test: Example 6 ADBH, 25(OH)D and combination, IgM (immunoturbidimetric).
Source text: as §1, §2

Test [3] concerns IgG. Nature of the test: Example 5 comparative effect of ingredients and additive, serum IgG. An excerpt:
(§3) The object of the study lied in analyzing comparative effect of main ingredients of the additive (the ADBH and vitamin D, separately) on the immune system of the body by variations of the main classes of immunoglobulins IgG, IgA, and IgM in blood serum. As stated previously, IgG is the main serum immunoglobuline of a healthy human amounting to 70-75% of the whole immunoglobulin fraction. It is especially active in the immune response. The serous IgA makes up to 15-20% of the whole immunoglobulin fraction. […] The IgM immunoglobulins are capable of neutralizing foreign particles, effectively activating complement, triggering defensive response mechanisms in the body.
(§4) 29 participants, 37 to 60 years old, residing in the city of Penza and suffering from frequent catarrhal diseases were examined, and low levels of immunoglobulin reference values were uncovered. In view of the task set, immunopotentiation was administered to them. Depending on the method of immune correction, the participants were divided into three groups:1st group—nine persons took a tablet of the ADBH (150 mg) twice a day for 30 days, 2nd group—8 persons took a tablet of vitamin D3 (500 IE) twice a day for 30 days, and 3rd group—12 persons took a tablet of the proposed additive (150 mg of the ADBH and 500 IE of vitamin D3) by one tablet twice a day for 30 days.

The test system of test [4] is ARD. Nature of the test: Example 5 catamnesis, ARD during six months after the study. Conditions: during six months after the study was over. As for the experimental part: as §4
In other words, an unexpected result of the combined use of the ingredients dramatically differs from that where the ingredients are employed individually. […] The result can probably be explained by the presence of an enhancer of one ingredient of the proposed additive in the other which is on full display only when the both ingredients are used jointly.

Test [5] deals with IgM. Kind of test: Example 5 comparative effect of ingredients and additive, serum IgM.
Source text: as §3, §4

The subject of test [6] is IgA. Kind of test: Example 5 comparative effect of ingredients and additive, serum IgA.
Source text: as §3, §4

Where [7] appears, read: After one-month treatment, twice a day (ADBH 150 mg, 25(OH)D 50 IE; or both in one tablet).
Setting [8] is: Before, apparently healthy participants 38 to 62 years.
The mark [9] stands for this setting: After, one tablet twice a day for 30 days (ADBH 150 mg; vitamin D3 500 IE; additive 150 mg ADBH + 500 IE D3).
Setting [10] is: Before, participants 37 to 60 years with frequent catarrhal diseases.

With `C=C1CC[C@H](O)C/C1=C/C=C1\CCC[C@]2(C)[C@@H]([C@H](C)CCCC(C)(C)O)CC[C@@H]12` [25 (OH)D], the “IgG, M ± m” value in test [1] (setting [7]) is on record as 12.39; in test [1] (setting [8]), 12.21. For the same compound, the “IgM, M ± m” value worked out at 1.82 in test [2] (setting [7]) and 1.91 in test [2] (setting [8]).

As to `C=C1CC[C@H](O)C/C1=C/C=C1\CCC[C@]2(C)[C@@H]([C@H](C)CCCC(C)C)CC[C@@H]12` [vitamin D3], the “IgG, M ± m” value in test [3] (setting [9]) was 12.27; in test [3] (setting [10]), 12.41. In test [4], the “falling ill with ARD in catamnesis” value was “had those diseased”. For the same compound, the results for the “IgM, M ± m” value in test [5] (setting [9]) and in test [5] (setting [10]) were 1.82 and 1.91, respectively. Also, the “IgA, M ± m” value in test [6] (setting [9]) is 1.93; in test [6] (setting [10]), 1.81.
